Activity calls are given as the source filed them.
Columns and labels:
[1] = molecular target: T1, Mannose-6-phosphate isomerase (Homo sapiens, UniProt P34949); test: MPI inhibition at elevated mannose 6-phosphate – biochemical, fluorescence intensity, high mannose 6-phosphate, primary screen (AID 1220)
T1 sequence (P34949 whole entry): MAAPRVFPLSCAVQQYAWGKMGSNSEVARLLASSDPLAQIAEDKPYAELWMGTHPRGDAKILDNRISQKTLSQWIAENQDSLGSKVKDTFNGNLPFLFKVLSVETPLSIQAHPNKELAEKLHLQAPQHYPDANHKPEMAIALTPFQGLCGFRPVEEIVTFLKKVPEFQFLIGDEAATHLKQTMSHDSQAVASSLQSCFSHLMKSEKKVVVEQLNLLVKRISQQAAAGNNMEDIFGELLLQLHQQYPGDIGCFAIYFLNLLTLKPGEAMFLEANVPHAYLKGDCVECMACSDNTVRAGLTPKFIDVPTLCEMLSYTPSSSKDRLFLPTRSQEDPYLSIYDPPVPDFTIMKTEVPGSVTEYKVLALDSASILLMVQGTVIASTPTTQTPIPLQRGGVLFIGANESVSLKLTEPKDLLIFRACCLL

Prothrombin = Prothrombin (Homo sapiens, UniProt P00734); test: Thrombin 1536 HTS Dose Response Confirmation. [Related pubchem assays: 1046 (Thrombin 1536 HTS; hits were confirmed in this assay)]; format: functional
Cytochrome P450 2C19 = Cytochrome P450 2C19 (Homo sapiens, UniProt P33261); test: Cytochrome panel assay with activity outcomes. Panel member name: p450-cyp2c19 Compounds with AC50 equal or less than 10 uM are considered active; format: functional; conditions: read-out: AC50
Aminopeptidase N = molecular target: T2, Aminopeptidase N (Plasmodium falciparum FcB1/Columbia, UniProt O96935); test: malaria alanyl aminopeptidase activity blockers – biochemical, fluorogenic H-Leu-NHMec substrate, 1536-well (AID 1445); set-up: species or system Plasmodium falciparum 3D7, 3D7
T2 sequence (O96935 whole entry): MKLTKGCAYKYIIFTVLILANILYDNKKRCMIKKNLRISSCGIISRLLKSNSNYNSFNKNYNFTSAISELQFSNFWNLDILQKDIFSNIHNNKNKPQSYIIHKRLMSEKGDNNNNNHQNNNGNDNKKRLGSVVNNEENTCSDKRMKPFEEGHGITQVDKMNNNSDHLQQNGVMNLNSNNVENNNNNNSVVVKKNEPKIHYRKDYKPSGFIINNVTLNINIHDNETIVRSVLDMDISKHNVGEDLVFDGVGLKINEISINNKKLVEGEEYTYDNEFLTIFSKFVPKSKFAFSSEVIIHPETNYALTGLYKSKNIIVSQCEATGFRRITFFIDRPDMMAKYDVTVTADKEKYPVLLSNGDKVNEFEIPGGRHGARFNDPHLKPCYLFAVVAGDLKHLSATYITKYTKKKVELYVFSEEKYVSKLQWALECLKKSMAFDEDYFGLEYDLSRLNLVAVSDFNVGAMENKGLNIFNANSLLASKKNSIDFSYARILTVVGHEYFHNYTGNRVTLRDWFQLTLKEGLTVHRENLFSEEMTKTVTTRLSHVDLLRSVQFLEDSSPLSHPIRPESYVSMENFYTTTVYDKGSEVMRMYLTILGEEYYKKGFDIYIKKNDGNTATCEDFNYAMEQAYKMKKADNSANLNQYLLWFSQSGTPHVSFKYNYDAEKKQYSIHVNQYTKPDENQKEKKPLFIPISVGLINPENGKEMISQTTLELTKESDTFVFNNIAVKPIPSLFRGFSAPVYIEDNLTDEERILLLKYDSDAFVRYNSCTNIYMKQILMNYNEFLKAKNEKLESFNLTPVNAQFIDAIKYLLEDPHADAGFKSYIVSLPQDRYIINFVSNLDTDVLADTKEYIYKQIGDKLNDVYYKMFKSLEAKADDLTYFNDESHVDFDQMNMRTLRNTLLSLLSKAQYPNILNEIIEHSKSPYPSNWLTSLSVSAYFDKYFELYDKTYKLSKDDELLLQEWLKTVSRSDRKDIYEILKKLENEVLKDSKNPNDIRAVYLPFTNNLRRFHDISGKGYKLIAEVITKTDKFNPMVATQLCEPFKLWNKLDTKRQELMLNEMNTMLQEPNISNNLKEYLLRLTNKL

Protein Tat = molecular target: T3, Protein Tat (Human immunodeficiency virus type 1 group M subtype B (isolate HXB2)(HIV-1), UniProt P04608); format: functional;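 note: tat binding to TAR RNA read out by fluorescence polarization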
T3 sequence (P04608 whole entry): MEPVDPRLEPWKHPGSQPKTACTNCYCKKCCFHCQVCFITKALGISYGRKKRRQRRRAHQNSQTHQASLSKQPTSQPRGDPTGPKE

Kallikrein-7 = Kallikrein-7 (Homo sapiens, UniProt P49862); test: Fluorescence Intensity-based biochemical primary high throughput dose response assay to identify activators of kallikrein-7 (K7) zymogen.
Vero [2] = test: cells; format: functional; conditions: Chlorocebus sabaeus
[3] = Luminescence Cell-Based Dose Confirmation HTS to Identify Activators of 5'UTR Stem-Loop Driven Alpha-Synuclein mRNA Translation in H4 Neuroglioblastoma Cells. [Related pubchem assays: 1829 (Project Summary), 1814 (Primary HTS)]; format: functional
H4 = test: Luminescence Cell-Based Dose Response HTS to Identify Activators of 5'UTR Stem-Loop Driven Prion Protein mRNA Translation in H4 Neuroglioblastoma Cells. [Related pubchem assays: 1829 (Project Summary), 1814 (Primary HTS)]; format: functional; conditions: Homo sapiens
[4] = Luminescence Cell-Based Dose Retest to Confirm Inhibitors of Cancer Stem Cells. [Related pubchem assays (depositor defined):AID2717, AID2721]; format: functional; conditions: Homo sapiens
Vero [5] = test: mammalian cell viability reduction – secondary assay, cytotoxicity control for West Nile virus antiviral project, dose response (AID 1650); format: functional; conditions: Chlorocebus sabaeus
[6] = Luminescence Cell-Based Dose Response HTS to Identify Activators of Luciferase Translation or Activity in H4 […] Cells. [Related pubchem assays: 1829 (Project Summary), 1814 (Primary HTS)]; format: functional
[7] = viability inhibitors of stage V gametocytes – luminescence, dose response (AID 1117278); format: functional, cell-based;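 note: gametocytes exposed to compound for 24 hours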
[8] = viability loss in human Jurkat cells – cell-based, luminescence, cytotoxicity control for P. falciparum gametocyte viability project, dose response (AID 1117277); format: functional;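 note: potency reflects loss of cellular ATP meaning fewer viable cells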
[9] = molecular target: T4, Carboxy-terminal domain RNA polymerase II polypeptide A small phosphatase 1 (Homo sapiens, UniProt Q9GZU7); test: CTDSP1 inhibitors, concentration-response, biochemical, absorbance readout, ultra-high-throughput screen actives (AID 540297); format: functional
T4 sequence (Q9GZU7 whole entry): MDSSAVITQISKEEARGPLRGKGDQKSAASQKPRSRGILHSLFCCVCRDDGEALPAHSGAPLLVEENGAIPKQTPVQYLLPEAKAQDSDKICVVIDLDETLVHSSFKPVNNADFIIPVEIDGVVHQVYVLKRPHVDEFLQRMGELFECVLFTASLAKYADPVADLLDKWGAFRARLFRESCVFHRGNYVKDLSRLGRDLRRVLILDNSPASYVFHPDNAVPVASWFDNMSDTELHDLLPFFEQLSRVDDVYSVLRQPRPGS

[10] = molecular target: T5, Long-chain-fatty-acid--AMP ligase FadD28 (Mycobacterium tuberculosis, UniProt P9WQ59); test: Fluorescence polarization aasay to screen for inhibitors that compete for the binding of FadD28 to a bisubstrate Measured in Biochemical System Using Plate Reader - 2147-01_Inhibitor_Dose_CherryPick_Activity.; format: functional, Mycobacterium tuberculosis H37Rv
T5 sequence (P9WQ59 whole entry): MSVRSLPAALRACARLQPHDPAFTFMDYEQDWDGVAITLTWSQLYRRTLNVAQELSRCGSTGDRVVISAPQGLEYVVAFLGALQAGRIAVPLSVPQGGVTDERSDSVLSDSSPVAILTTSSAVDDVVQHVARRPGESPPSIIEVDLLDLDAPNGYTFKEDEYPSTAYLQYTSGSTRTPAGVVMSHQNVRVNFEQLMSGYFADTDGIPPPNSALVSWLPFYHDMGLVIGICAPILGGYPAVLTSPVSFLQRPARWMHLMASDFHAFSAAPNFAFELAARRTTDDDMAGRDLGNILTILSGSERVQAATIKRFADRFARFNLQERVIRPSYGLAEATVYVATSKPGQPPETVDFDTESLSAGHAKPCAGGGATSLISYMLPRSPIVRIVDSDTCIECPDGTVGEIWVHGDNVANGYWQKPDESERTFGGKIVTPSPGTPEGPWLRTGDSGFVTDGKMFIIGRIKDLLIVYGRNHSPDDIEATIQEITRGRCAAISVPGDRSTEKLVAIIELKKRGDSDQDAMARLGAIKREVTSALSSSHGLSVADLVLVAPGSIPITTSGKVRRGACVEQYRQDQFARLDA

Beta-galactosidase = Beta-galactosidase (Escherichia coli, UniProt Q8VNN2); test: Dose response counterscreen for EBI2 assay utilizing the enzyme, b-galactosidase.; format: functional
[11] = OVCAR8 cell viability loss – plate reader, dry powder samples, PAX8 project, dose response (AID 743197); format: functional, cell-based; conditions: OVCAR-8
[12] = OVCAR-3 cell viability loss – plate reader, dry powder samples, PAX8 inhibitor project, dose response (AID 743044); format: functional, cell-based
[13] = IGROV1 cell killing – plate reader, dry powder samples, PAX8 inhibitor project, dose response (AID 743043); format: functional, cell-based; conditions: IGROV-1
Paired box protein Pax-8 = Paired box protein Pax-8 (Homo sapiens, UniProt Q06710); test: PAX8 transcriptional activity inhibition in RMG-I – RMG-I cells, luciferase, cherry-pick, dose response (AID 687027); format: functional, cell-based;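 note: luciferase reporter driven by Pax8 target thyroperoxidase promoter measured by SteadyGlo luminescence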
[14] = HIV-1 AD8 envelope cell-cell fusion blockers – cherry-pick, dose response (AID 652062); format: functional, cell-based;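 note: luciferase signal from cell-cell fusion driven by HIV-1 clade B AD8 Env; potency is for inhibitors of fusion seen as a drop in luminescence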
[15] = blockers of HIV-1 ZM109 envelope-driven cell-cell fusion – HeLa effector, CEM target cells, luciferase, cherry-pick, dose response (AID 652058); format: functional, cell-based;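 note: luciferase signal from HIV-1 Env mediated cell-cell fusion of effector and target cells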
[16] = off-target signal loss in HeLa-CEM21 co-culture – HeLa F-luc CTL cells, cherry-picked, counter-screen for HIV-1 Env fusion inhibitor project, dose response (AID 652040); format: functional, cell-based;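 note: potency for signal decrease marking cytotoxic or nonspecific inhibition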
[17] = viability loss in CEM21 cells – cell-based, CellTiter-Glo luminescence, cherry-picked, cytotoxicity control for viral fusion inhibitor project, dose response (AID 652042); format: functional;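 note: potency for signal decrease meaning cytotoxicity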
[18] = blockers of HIV-1 envelope-mediated cell-cell fusion – cherry-pick, dose response (AID 652057); format: functional, cell-based
H9c2 = test: cells; format: functional, cell-based; conditions: Rattus norvegicus, H9c2, Myocardium;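 note: confirmatory concentration-response retest of ultra-high-throughput screening hits for modulation of myocardial damage; cell death induced by hydrogen peroxide oxidative stress; compound pretreatment for 60 min then peroxide exposure for 2 h; potency is for protecting the cells against peroxide damage rather than for killing them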
[19] = molecular target: Heat shock protein HSP 90-alpha (Homo sapiens, UniProt P07900); format: functional, organism-based

Sequence of Kallikrein-7 (P49862 whole entry): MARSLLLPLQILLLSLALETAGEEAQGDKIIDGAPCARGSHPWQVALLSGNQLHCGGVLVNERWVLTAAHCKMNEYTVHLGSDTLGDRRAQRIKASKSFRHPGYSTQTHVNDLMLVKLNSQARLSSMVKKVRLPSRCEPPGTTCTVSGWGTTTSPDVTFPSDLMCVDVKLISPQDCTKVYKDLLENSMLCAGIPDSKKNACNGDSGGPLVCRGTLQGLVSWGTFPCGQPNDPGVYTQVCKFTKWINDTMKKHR
Sequence of Beta-galactosidase (Q8VNN2 whole entry): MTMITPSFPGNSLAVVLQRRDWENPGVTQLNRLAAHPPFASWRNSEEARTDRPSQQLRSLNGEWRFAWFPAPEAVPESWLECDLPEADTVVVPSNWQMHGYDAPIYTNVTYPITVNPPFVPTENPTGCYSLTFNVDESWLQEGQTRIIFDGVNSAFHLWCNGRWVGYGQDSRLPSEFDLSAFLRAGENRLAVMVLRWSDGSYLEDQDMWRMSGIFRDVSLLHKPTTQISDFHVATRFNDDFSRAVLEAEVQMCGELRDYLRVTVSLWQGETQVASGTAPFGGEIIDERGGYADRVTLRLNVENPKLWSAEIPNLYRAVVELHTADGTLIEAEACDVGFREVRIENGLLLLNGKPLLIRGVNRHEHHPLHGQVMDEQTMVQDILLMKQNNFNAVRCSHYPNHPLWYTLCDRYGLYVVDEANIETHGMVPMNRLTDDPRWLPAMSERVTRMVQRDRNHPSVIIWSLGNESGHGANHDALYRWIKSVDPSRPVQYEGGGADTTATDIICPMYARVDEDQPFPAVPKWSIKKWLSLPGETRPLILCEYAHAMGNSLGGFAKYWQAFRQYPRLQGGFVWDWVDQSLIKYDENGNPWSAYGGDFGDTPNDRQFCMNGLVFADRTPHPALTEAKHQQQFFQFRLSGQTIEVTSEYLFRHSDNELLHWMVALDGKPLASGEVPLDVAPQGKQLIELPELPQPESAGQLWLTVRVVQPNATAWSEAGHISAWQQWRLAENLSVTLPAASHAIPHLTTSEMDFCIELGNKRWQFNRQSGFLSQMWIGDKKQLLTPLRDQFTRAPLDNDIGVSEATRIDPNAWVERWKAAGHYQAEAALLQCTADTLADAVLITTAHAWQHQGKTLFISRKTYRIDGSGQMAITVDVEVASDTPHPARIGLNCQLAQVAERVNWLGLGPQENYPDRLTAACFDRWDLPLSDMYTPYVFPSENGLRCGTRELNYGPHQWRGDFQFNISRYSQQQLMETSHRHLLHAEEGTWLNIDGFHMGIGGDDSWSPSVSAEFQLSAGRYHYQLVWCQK
Sequence of Cytochrome P450 2C19 (P33261 whole entry): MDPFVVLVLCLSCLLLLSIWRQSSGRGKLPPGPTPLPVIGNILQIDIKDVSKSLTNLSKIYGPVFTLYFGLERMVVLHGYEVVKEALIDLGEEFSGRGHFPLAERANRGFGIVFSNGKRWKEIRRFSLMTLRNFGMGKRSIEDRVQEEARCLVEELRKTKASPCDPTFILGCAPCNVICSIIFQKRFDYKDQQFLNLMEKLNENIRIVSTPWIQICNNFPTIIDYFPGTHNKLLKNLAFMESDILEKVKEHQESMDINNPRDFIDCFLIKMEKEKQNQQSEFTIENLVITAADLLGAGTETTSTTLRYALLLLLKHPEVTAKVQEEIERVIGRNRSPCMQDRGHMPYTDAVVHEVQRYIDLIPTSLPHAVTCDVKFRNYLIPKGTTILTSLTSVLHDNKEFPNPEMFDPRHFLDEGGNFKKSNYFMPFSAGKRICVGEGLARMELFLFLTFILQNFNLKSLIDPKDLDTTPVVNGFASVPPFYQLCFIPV
Sequence of Paired box protein Pax-8 (Q06710 whole entry, the tested form may be a part): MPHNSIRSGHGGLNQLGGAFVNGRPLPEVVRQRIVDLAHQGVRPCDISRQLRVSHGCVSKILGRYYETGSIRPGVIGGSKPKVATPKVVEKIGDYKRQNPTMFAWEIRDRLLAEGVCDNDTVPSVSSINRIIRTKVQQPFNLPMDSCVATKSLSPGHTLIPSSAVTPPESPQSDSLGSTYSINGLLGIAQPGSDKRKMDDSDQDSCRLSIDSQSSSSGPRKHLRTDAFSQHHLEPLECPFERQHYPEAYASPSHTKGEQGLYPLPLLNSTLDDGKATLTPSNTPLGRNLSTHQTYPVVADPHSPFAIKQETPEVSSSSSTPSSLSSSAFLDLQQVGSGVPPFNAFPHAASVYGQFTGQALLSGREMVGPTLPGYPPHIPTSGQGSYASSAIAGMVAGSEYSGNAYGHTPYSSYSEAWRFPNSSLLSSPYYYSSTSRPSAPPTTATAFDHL

CN(C)c1ccc(C(=S)N2CCOCC2)cc1Br
IC50 [1]: > 50 µM (not active)

Nc1nc(-c2cccnc2)nn1C(=O)Cc1ccccc1
IC50 (Prothrombin): 0.0753 µM (active)

CC(=O)/N=C1\C(=O)N(C)c2cccc3c(O)c4ccccc4c1c23
AC50 (Cytochrome P450 2C19): 14.1 µM (inconclusive)
IC50 (Aminopeptidase N): 27.9 µM (active)
IC50 (Protein Tat): > 100 µM (active)

CCOC(=O)C1CCN(S(=O)(=O)c2cccc(-c3cn4cccnc4n3)c2)CC1
EC50 (Kallikrein-7): > 69.5 µM (inactive)

CC1=NN(c2ccccc2)C(=O)/C1=C\C=C\c1ccccc1
CC50 (Vero [2]): 12.1 µM (active)
EC50 [3]: > 120 µM (not active)
EC50 (H4): > 120 µM (not active)
AC50 [4]: 4.82 µM (active)
CC50 (Vero [5]): 26.8 µM (active)
EC50 [6]: 27.3 µM (active)

CC(O)C(=O)N/N=C/c1cccc2ccccc12 (stereo not drawn)
IC50 (Prothrombin): 48.8 µM (active)

NCCCN1CCOCC1
IC50 [7]: > 109 µM (inactive)
IC50 [8]: > 83.4 µM (inactive)

O=C1NCC(COCc2ccco2)O1 (stereo not drawn)
IC50 (Prothrombin): > 50 µM (not active)

CC(C)C1Oc2ccccc2N(CC(=O)N(Cc2ccccn2)C2CC2)C1=O (stereo not drawn)
IC50 [7]: > 109 µM (inactive)
IC50 [8]: > 83.3 µM (inactive)

Cc1cccc(NC(=O)CN2C(=O)S/C(=C\c3ccc(O)c([N+](=O)[O-])c3)C2=O)c1
IC50 [9]: 3.43 µM (active)
AC50 [10]: 0.102 µM (active)

COC(=O)CC1=C(C(=O)OC)[C@@H](c2ccccc2[N+](=O)[O-])C(C#N)=C(N)O1
EC50 (Kallikrein-7): 8.2 µM (active)

CCN(CC(=O)Nc1c(F)cccc1F)C(=O)/C=C/c1ccc(C)cc1
IC50 (Beta-galactosidase): > 80 µM (inactive)

CCn1c(SCC(=O)NCc2ccco2)nnc1-c1cccs1
IC50 (Protein Tat): > 100 µM (active)

COc1ccc(N2CCN(C(=O)c3cc(=O)c4cc(C)cc(C)c4o3)CC2)cc1
IC50 (Beta-galactosidase): > 80 µM (inactive)

O=C(c1ccco1)n1nc(-c2ccco2)nc1SCc1ccccc1
IC50 (Prothrombin): 0.201 µM (active)

CS(=O)(=O)N(CC(=O)N1CCC(C(N)=O)CC1)C1CCCCC1
IC50 [7]: > 109 µM (inactive)
IC50 [8]: > 83.3 µM (inactive)

C[C@H]1CCCCO[C@@H](CN(C)S(=O)(=O)c2ccccc2)[C@@H](C)CN([C@@H](C)CO)C(=O)c2cc(NC(=O)Nc3ccc(C(F)(F)F)cc3)ccc2O1
AC50 [11]: 52.4 µM (active)
AC50 [12]: 19.4 µM (active)
AC50 [13]: 53.1 µM (active)
AC50 (Paired box protein Pax-8): 6.6 µM (active)

Cc1oc(-c2cccc(Cl)c2)nc1CN1CCCC(C(=O)NC(C)c2ccc3c(c2)OCCO3)C1 (stereo not drawn)
AC50 [14]: 4.68 µM (active)
AC50 [15]: 3.47 µM (active)
AC50 [16]: 3.92 µM (active)
AC50 [17]: 54.5 µM (active)
AC50 [18]: 2.58 µM (active)

Cc1ccc(N2CCN(c3ccc(C)cc3)C2c2ccccn2)cc1
IC50 (Protein Tat): > 100 µM (active)

O=c1c2ccccc2nc(/C=C/c2ccc(O)cc2)n1-c1ccc(O)cc1
EC50 (Kallikrein-7): 21.7 µM (inactive)
IC50 (H9c2): > 79 µM (inactive)

COc1ccc(C(=O)/C=C2\C(=O)Nc3ccc(Br)cc32)cc1
CC50 (Vero [2]): 14.9 µM (active)
AC50 [19]: 1.59 µM (active)
IC50 (Beta-galactosidase): 71.6 µM (inactive)

CCN1c2ccccc2-c2nc3ccccc3n2C1c1ccccn1 (stereo not drawn)
EC50 (Kallikrein-7): > 69.5 µM (inactive)

Source: ChEMBL document CHEMBL1201862, “PubChem BioAssay data set” (2004)
